Data from US9458124B2, “Substituted pyran derivatives” (Wayne State University, priority 2013, dated 2016).
Where a name gives a salt, the structure may show the parent alone.

Experiments:
DAT = molecular target: T1, DAT (Rattus norvegicus, UniProt P23977); assay: DAT uptake inhibition, [3H]DA, rat brain; type: biochemical; conditions: number in parentheses within cell
T1 construct: from tissue; host or cells: rat brain

SERT = molecular target: T2, SERT (Rattus norvegicus, UniProt P31652); assay: SERT uptake inhibition, [3H]-5-HT, rat brain; type: biochemical; conditions: number in parentheses within cell
T2 construct: from tissue; host or cells: rat brain

NET = molecular target: T3, NET (Rattus norvegicus, UniProt Q63380); assay: NET uptake inhibition, [3H]DA, rat brain; type: biochemical; conditions: number in parentheses within cell
T3 construct: from tissue; host or cells: rat brain
T3 sequence (Q63380 1-617): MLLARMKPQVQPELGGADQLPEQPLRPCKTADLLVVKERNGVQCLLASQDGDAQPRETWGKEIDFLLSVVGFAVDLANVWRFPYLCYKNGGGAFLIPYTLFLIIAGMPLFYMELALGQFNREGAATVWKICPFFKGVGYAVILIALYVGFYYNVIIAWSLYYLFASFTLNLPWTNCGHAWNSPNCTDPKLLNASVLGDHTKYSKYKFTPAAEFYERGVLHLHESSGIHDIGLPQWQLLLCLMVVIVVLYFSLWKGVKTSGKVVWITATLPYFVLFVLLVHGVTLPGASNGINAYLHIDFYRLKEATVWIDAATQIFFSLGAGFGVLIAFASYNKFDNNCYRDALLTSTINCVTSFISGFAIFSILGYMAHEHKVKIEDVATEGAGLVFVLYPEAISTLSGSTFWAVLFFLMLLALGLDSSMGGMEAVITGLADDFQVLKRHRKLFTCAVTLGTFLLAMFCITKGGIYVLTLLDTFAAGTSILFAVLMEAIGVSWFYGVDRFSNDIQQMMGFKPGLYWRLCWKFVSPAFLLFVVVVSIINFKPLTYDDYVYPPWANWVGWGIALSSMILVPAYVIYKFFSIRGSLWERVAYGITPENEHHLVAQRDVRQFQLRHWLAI

T1 sequence (P23977 whole entry): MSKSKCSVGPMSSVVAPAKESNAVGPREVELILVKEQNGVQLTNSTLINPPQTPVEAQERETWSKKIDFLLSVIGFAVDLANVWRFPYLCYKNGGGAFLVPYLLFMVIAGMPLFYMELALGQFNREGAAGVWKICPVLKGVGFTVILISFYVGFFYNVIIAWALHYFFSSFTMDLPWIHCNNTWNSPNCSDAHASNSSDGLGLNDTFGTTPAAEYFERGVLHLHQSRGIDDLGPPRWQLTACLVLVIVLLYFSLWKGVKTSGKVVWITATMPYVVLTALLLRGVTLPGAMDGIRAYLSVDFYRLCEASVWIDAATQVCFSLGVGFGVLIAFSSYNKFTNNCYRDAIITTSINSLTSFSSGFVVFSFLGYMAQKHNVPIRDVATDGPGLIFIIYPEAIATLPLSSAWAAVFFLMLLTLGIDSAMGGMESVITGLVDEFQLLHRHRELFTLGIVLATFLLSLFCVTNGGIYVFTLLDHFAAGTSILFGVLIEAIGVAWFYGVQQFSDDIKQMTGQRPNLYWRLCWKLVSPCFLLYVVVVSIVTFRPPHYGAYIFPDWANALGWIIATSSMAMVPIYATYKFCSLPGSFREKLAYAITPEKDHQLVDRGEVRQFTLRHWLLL
T2 sequence (P31652 whole entry): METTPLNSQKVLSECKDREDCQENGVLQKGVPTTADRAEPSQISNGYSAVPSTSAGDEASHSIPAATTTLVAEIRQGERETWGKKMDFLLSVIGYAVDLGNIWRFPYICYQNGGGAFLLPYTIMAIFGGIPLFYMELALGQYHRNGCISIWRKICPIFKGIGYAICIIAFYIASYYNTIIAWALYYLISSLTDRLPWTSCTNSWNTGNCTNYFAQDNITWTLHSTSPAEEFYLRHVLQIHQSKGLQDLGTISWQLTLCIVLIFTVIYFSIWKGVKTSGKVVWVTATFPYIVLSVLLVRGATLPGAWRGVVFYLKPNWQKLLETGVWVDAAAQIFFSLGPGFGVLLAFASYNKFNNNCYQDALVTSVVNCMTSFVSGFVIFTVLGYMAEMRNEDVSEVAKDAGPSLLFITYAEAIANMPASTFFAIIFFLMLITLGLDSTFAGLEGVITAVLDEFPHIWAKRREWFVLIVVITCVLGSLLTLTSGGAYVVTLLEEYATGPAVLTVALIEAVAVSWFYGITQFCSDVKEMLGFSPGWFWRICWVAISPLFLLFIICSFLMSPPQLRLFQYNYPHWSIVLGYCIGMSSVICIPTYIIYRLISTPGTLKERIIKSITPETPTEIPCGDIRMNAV

Structure (SMILES) | melting point | Ki (DAT) | Ki (SERT) | Ki (NET)
Oc1cc(O)cc(CN[C@@H]2CO[C@H](C(c3ccccc3)c3ccccc3)C[C@H]2O)c1 (as salt: hydrochloride) [4f, D-542, 5-((((3R,4R,6S)-6-benzhydryl-4-hydroxytetrahydro-2H-pyran-3-yl)amino)methyl)benzene-1,3-diol] | 168 to 170 °C |  |  | 
O[C@@H]1C[C@@H](C(c2ccccc2)c2ccccc2)OC[C@H]1NCc1ccc2cc[nH]c2c1 (as salt: oxalate) [4b, D-544, (2S,4R,5R)-5-(((1H-indol-6-yl)methyl)amino)-2-benzhydryltetrahydro-2H-pyran-4-ol] | 152 to 154 °C |  |  | 
COc1cc(O)cc(CN[C@@H]2CO[C@H](C(c3ccccc3)c3ccccc3)C[C@H]2O)c1 (as salt: hydrochloride) [4e, D-503, (2S,4R,5R)-2-benzhydryl-5-((3-hydroxy-5-methoxybenzyl)amino)tetrahydro-2H-pyran-4-ol] | 160 to 162 °C |  |  | 
COc1ccc(CN[C@@H]2CO[C@H](C(c3ccc(F)cc3)c3ccc(F)cc3)C[C@H]2O)cc1 [6a, D-473, (2S,4R,5R)-2-(bis(4-fluorophenyl)methyl)-5-((4-methoxybenzyl)amino)tetrahydro-2H-pyran-4-ol] |  | 13.3 ± 2 nM | 46.7 ± 17 nM | 13.2 ± 3.5 nM
COc1cccc(CN[C@@H]2CO[C@H](C(c3ccccc3)c3ccccc3)C[C@H]2O)c1 (as salt: hydrochloride) [4g, D-523, (2S,4R,5R)-2-benzhydryl-5-((3-methoxybenzyl)amino)tetrahydro-2H-pyran-4-ol] | 197 to 199 °C |  |  | 
CCNc1ccc(CN[C@@H]2CO[C@H](C(c3ccc(F)cc3)c3ccc(F)cc3)C[C@H]2O)cc1 [6m, D-530, (2S,4R,5R)-2-(bis(4-fluorophenyl)methyl)-5-((4-(ethylamino)benzyl)amino) tetrahydro-2H-pyran-4-ol] |  |  | 320 ± 40 nM | 
CN(C)c1ccc(CN[C@@H]2CO[C@H](C(c3ccc(F)cc3)c3ccc(F)cc3)C[C@H]2O)cc1 [6o, D-536, (2S,4R,5R)-2-(bis(4-fluorophenyl)methyl)-5-((4-(dimethylamino)benzyl)amino)tetrahydro-2H-pyran-4-ol] |  | 41.3 ± 9.7 nM | 144 ± 26 nM | 56.6 ± 5.2 nM
c1ccc(C(c2ccccc2)[C@@H]2CC[C@H](NCc3ccc4cc[nH]c4c3)CO2)cc1 [2b, D-543] |  | 56.3 ± 1.1 nM | 13.6 ± 1.6 nM | 20.8 ± 4.6 nM
COc1ccc(CN[C@@H]2CO[C@H](C(c3ccc(F)cc3)c3ccc(F)cc3)C[C@H]2O)cc1O [6i, D-528, (2S,4R,5R)-2-(bis(4-fluorophenyl)methyl)-5-((3-hydroxy-4-methoxybenzyl)amino)tetrahydro-2H-pyran-4-ol] |  | 7.94 ± 0.66 nM | 367 ± 52 nM | 
COc1cccc(CN[C@@H]2CO[C@H](C(c3ccccc3)c3ccccc3)C[C@H]2O)c1 [4g, D-523, (2S,4R,5R)-2-benzhydryl-5-((3-methoxybenzyl)amino)tetrahydro-2H-pyran-4-ol] |  | 376 ± 68 nM | 27.2 ± 3 nM | 5.85 ± 1.27 nM
c1ccc(C(c2ccccc2)[C@@H]2CC[C@H](NCc3ccc4occc4c3)CO2)cc1 (as salt: hydrochloride) [2a, D-484, (3S,6S)-6-benzhydryl-N-(benzofuran-5-ylmethyl)tetrahydro-2H-pyran-3-amine] | 140 to 142 °C |  |  | 
c1ccc(C(c2ccccc2)[C@@H]2CC[C@H](NCc3ccc4cc[nH]c4c3)CO2)cc1 (as salt: oxalate) [2b, D-543] | 194 to 196 °C |  |  | 
Oc1cc(O)cc(CN[C@@H]2CO[C@H](C(c3ccccc3)c3ccccc3)C[C@H]2O)c1 [4f, D-542, 5-((((3R,4R,6S)-6-benzhydryl-4-hydroxytetrahydro-2H-pyran-3-yl)amino)methyl)benzene-1,3-diol] |  | 259 ± 44 nM | 3020 nM | 152 ± 29 nM
COc1cc(O)cc(CN[C@@H]2CO[C@H](C(c3ccc(F)cc3)c3ccc(F)cc3)C[C@H]2O)c1 [6g, D-526, (2S,4R,5R)-2-(bis(4-fluorophenyl)methyl)-5-((3-hydroxy-5-methoxybenzyl)amino)tetrahydro-2H-pyran-4-ol] |  | 25.6 ± 5.8 nM | 577 ± 94 nM | 
c1ccc(C(c2ccccc2)[C@@H]2CC[C@H](NCc3ccc4occc4c3)CO2)cc1 [2a, D-484, (3S,6S)-6-benzhydryl-N-(benzofuran-5-ylmethyl)tetrahydro-2H-pyran-3-amine] |  | 81.9 ± 17.9 nM | 0.71 ± 0.085 nM | 25.2 ± 5.3 nM
Oc1ccc(CN[C@@H]2CO[C@H](C(c3ccc(F)cc3)c3ccc(F)cc3)C[C@H]2O)cc1F [6n, D-531, (2S,4R,5R)-2-(bis(4-fluorophenyl)methyl)-5-((3-fluoro-4-hydroxybenzyl)amino) tetrahydro-2H-pyran-4-ol] |  |  | 334 ± 54 nM | 

Structure (SMILES) | melting point | Ki (DAT) | Ki (SERT) | Ki (NET)
COc1cc(CN[C@@H]2CO[C@H](C(c3ccccc3)c3ccccc3)C[C@H]2O)ccc1O [4c, D-501, (2S,4R,5R)-2-benzhydryl-5-((4-hydroxy-3-methoxybenzyl)amino)tetrahydro-2H-pyran-4-ol] |  | 167 ± 36 nM |  | 
O[C@@H]1C[C@@H](C(c2ccccc2)c2ccccc2)OC[C@H]1NCc1ccc2occc2c1 [4a, D-485, (2S,4R,5R)-2-benzhydryl-5-((benzofuran-5-ylmethyl)amino)tetrahydro-2H-pyran-4-ol] |  | 234 ± 11 nM | 2.68 ± 0.094 nM | 33.6 ± 18.7 nM
COc1cc(CN[C@@H]2CO[C@H](C(c3ccccc3)c3ccccc3)C[C@H]2O)ccc1O (as salt: hydrochloride) [4c, D-501, (2S,4R,5R)-2-benzhydryl-5-((4-hydroxy-3-methoxybenzyl)amino)tetrahydro-2H-pyran-4-ol] | 203 to 205 °C |  |  | 
COc1cc(CN[C@@H]2CO[C@H](C(c3ccc(F)cc3)c3ccc(F)cc3)C[C@H]2O)ccc1O [6h, D-527, (2S,4R,5R)-2-(bis(4-fluorophenyl)methyl)-5-((4-hydroxy-3-methoxybenzyl)amino)tetrahydro-2H-pyran-4-ol] |  | 8.94 ± 2.2 nM | 107 ± 11 nM | 
O[C@@H]1C[C@@H](C(c2ccc(F)cc2)c2ccc(F)cc2)OC[C@H]1NCc1ccc2c(c1)OCO2 [6b, D-506, (2S,4R,5R)-5-((benzo[d][1,3]dioxol-5-ylmethyl)amino)-2-(bis(4-fluorophenyl)methyl)tetrahydro-2H-pyran-4-ol] |  | 37 ± 7.5 nM |  | 
O[C@@H]1C[C@@H](C(c2ccccc2)c2ccccc2)OC[C@H]1NCc1ccc2cc[nH]c2c1 [4b, D-544, (2S,4R,5R)-5-(((1H-indol-6-yl)methyl)amino)-2-benzhydryltetrahydro-2H-pyran-4-ol] |  | 64 ± 6.1 nM | 9.6 ± 2.57 nM | 10 ± 3.5 nM
COc1ccc(CN[C@@H]2CO[C@H](C(c3ccccc3)c3ccccc3)C[C@H]2O)cc1O [4d, D-502, (2S,4R,5R)-2-benzhydryl-5-((3-hydroxy-4-methoxybenzyl)amino)tetrahydro-2H-pyran-4-ol] |  | 58.6 ± 11.8 nM | 281 ± 37 nM | 
Nc1ccc(CN[C@@H]2CO[C@H](C(c3ccc(F)cc3)c3ccc(F)cc3)C[C@H]2O)cc1 [6k, D-529, (2S,4R,5R)-5-((4-aminobenzyl)amino)-2-(bis(4-fluorophenyl)methyl) tetrahydro-2H-pyran-4-ol] |  | 24.5 ± 1.2 nM | 339 ± 39 nM | 
COc1ccc(CN[C@@H]2CO[C@H](C(c3ccc(F)cc3)c3ccc(F)cc3)C[C@H]2O)cn1 [6p, D-537, (2S,4R,5R)-2-(bis(4-fluorophenyl)methyl)-5-(((6-methoxypyridin-3-yl)methyl)amino)tetrahydro-2H-pyran-4-ol] |  | 20.1 ± 5.3 nM | 258 ± 26 nM | 28.4 ± 4 nM
COc1ccc(CN[C@@H]2CO[C@H](C(c3ccccc3)c3ccccc3)C[C@H]2O)cc1O (as salt: hydrochloride) [4d, D-502, (2S,4R,5R)-2-benzhydryl-5-((3-hydroxy-4-methoxybenzyl)amino)tetrahydro-2H-pyran-4-ol] | 168 to 170 °C |  |  | 
O[C@@H]1C[C@@H](C(c2ccccc2)c2ccccc2)OC[C@H]1NCc1ccc2occc2c1 (as salt: hydrochloride) [4a, D-485, (2S,4R,5R)-2-benzhydryl-5-((benzofuran-5-ylmethyl)amino)tetrahydro-2H-pyran-4-ol] | 204 to 206 °C |  |  | 
O[C@@H]1C[C@@H](C(c2ccc(F)cc2)c2ccc(F)cc2)OC[C@H]1NCc1ccc2occc2c1 [6d, D-508, (2S,4R,5R)-5-((benzofuran-5-ylmethyl)amino)-2-(bis(4-fluorophenyl)methyl)tetrahydro-2H-pyran-4-ol] |  | 29.3 ± 2.4 nM | 68.4 ± 11.4 nM | 26.5 ± 6.6 nM
COc1cc(O)cc(CN[C@@H]2CO[C@H](C(c3ccccc3)c3ccccc3)C[C@H]2O)c1 [4e, D-503, (2S,4R,5R)-2-benzhydryl-5-((3-hydroxy-5-methoxybenzyl)amino)tetrahydro-2H-pyran-4-ol] |  | 209 ± 25 nM | 385 ± 42 nM | 
O[C@@H]1C[C@@H](C(c2ccc(F)cc2)c2ccc(F)cc2)OC[C@H]1NCc1ccc2c(c1)CCO2 [6c, D-507, (2S,4R,5R)-2-(bis(4-fluorophenyl)methyl)-5-(((2,3-dihydrobenzofuran-5-yl)methyl)amino)tetrahydro-2H-pyran-4-ol] |  | 17 nM | 54 ± 7.8 nM | 25.8 ± 5 nM
COc1cccc(CN[C@@H]2CO[C@H](C(c3ccc(F)cc3)c3ccc(F)cc3)C[C@H]2O)c1 [6e, D-524, (2S,4R,5R)-2-(bis(4-fluorophenyl)methyl)-5-((3-methoxybenzyl)amino)tetrahydro-2H-pyran-4-ol] |  | 56.8 ± 7.6 nM | 129 ± 25 nM | 
